Data set [1] addresses T1, glucagon receptor (Homo sapiens, UniProt P47871). As to the kind of experiment: cell-based. From the text:
HEK293 cells co-transfected with the receptor and luciferase gene linked to a cAMP responsive element were employed for the bioassay.
All EC50s and IC50s are reported in the following examples in nM, unless indicated otherwise.

Data set [2] deals with T1, glucagon receptor. As to the kind of experiment: glucagon receptor binding. The arrangement: expressed in transfected cells; host or cells: HEK293.
Another data set is described as follows: solubility at pH 6-8. Type of data set: physicochemical.
The mark [3] stands for this setting: Table G, average ±STD of at least three experiments, same values as receptor binding in Table I, read-out: IC50.
[4] abbreviates: Table E, read-out: Receptor Binding IC50.
The mark [5] stands for this setting: Table H, same values as receptor binding in Table I, read-out: IC50.
[6] abbreviates: read-out: IC50(nM) (cΛMP, inhibit 0.2 mM Glucagon), Table L, inhibit 0.2 mM Glucagon.
Where [7] appears, read: Table L, read-out: IC50(nM) (Receptor binding).
Setting [8] is: Table L, inhibit 0.2 mM Glucagon.

Read-outs that look alike come from different tables or passages of the source. Square brackets hold non-standard residues; d marks the D form. Side chains are listed from the residue outwards. Ends that are not written are not given here. Peptide text beside a SMILES is read from it. * marks the point of attachment. Carboxymethyl = O=C(O)C*; CH2CH2COOH = O=C(O)CC*

T1 sequence (P47871 26-477): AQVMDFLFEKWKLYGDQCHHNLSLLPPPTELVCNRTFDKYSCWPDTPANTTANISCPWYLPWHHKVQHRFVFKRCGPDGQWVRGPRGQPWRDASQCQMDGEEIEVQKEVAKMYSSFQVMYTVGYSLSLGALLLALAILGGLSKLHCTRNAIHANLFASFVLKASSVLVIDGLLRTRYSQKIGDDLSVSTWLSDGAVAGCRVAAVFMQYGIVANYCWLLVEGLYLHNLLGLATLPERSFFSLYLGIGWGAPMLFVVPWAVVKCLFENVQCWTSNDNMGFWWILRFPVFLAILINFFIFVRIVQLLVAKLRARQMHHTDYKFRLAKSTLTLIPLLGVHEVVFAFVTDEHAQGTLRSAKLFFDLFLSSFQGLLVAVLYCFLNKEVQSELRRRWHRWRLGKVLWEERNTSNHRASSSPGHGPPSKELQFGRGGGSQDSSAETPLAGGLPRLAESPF

`CSCC[C@H](NC(=O)[C@H](CC(C)C)NC(=O)[C@H](Cc1c[nH]c2ccccc12)NC(=O)[C@H](CCC(N)=O)NC(=O)[C@@H](NC(=O)[C@H](Cc1ccccc1)NC(=O)[C@H](CC(=O)O)NC(=O)[C@H](CCC(N)=O)NC(=O)[C@H](C)NC(=O)[C@H](CCCNC(=N)N)NC(=O)[C@H](CCCNC(=N)N)NC(=O)[C@H](CO)NC(=O)[C@H](CC(=O)O)NC(=O)[C@H](CC(C)C)NC(=O)[C@H](Cc1ccc(O)cc1)NC(=O)[C@H](CCCCN)NC(=O)[C@H](CO)NC(=O)[C@H](Cc1ccc(O)cc1)NC(=O)[C@H](CCCC(=O)O)NC(=O)[C@H](CO)NC(=O)[C@@H](NC(=O)[C@@H](N)Cc1ccccc1)[C@@H](C)O)C(C)C)C(=O)N[C@@H](CC(N)=O)C(=O)N[C@H](C(N)=O)[C@@H](C)O` [(hGlu^9]Glucagon(aa6-29)-NH2] (HELM PEPTIDE1{F.T.S.[O=C(O)CCC[C@H](N[*:1])C(=O)[*:2]].Y.S.K.Y.L.D.S.R.R.A.Q.D.F.V.Q.W.L.M.N.T.[am]}$$$$V2.0; N-terminus assumed) showed a Kb at glucagon receptor [1] of 537 nM. Moreover, at glucagon receptor [1] (Table I), the “cAMP pA2” value is 6.27 ± 0.11. The IC50 (in general, the point on the concentration scale where inhibition reaches its midpoint) on glucagon receptor [2] (setting [3]) turned out to be 163 ± 70.8 nM.
`CSCC[C@H](NC(=O)[C@H](CC(C)C)NC(=O)[C@H](Cc1c[nH]c2ccccc12)NC(=O)[C@H](CCC(N)=O)NC(=O)[C@@H](NC(=O)[C@H](Cc1ccccc1)NC(=O)[C@H](CC(=O)O)NC(=O)[C@H](CCC(N)=O)NC(=O)[C@H](C)NC(=O)[C@H](CCCNC(=N)N)NC(=O)[C@H](CCCNC(=N)N)NC(=O)[C@H](CO)NC(=O)[C@H](CC(=O)O)NC(=O)[C@H](CC(C)C)NC(=O)[C@H](Cc1ccc(O)cc1)NC(=O)[C@H](CCCCN)NC(=O)[C@H](CO)NC(=O)[C@H](Cc1ccc(O)cc1)NC(=O)[C@H](CSCC(=O)O)NC(=O)[C@H](CO)NC(=O)[C@@H](NC(=O)[C@@H](N)Cc1ccccc1)[C@@H](C)O)C(C)C)C(=O)N[C@@H](CC(N)=O)C(=O)N[C@H](C(N)=O)[C@@H](C)O` [[(CSA-1)^9]Glucagon(aa6-29)-NII2, [C^9(SCH2COOH)]Glucagon(aa6-29)-NH2] (H-FTSC(Carboxymethyl)YSKYLDSRRAQDFVQWLMNT-NH2; N-terminus assumed) had a Kb on glucagon receptor [1] of 209 nM. Moreover, the “cAMP pA2” value on glucagon receptor [1] (Table I) amounted to 6.68 ± 1.05. For the same molecule, the IC50 on glucagon receptor [2] (setting [3]) stood at 107 ± 5.37 nM.
The like results for `CSCC[C@H](NC(=O)[C@H](CC(C)C)NC(=O)[C@H](Cc1c[nH]c2ccccc12)NC(=O)[C@H](CCC(N)=O)NC(=O)[C@@H](NC(=O)[C@H](Cc1ccccc1)NC(=O)[C@H](CC(=O)O)NC(=O)[C@H](CCC(N)=O)NC(=O)[C@H](C)NC(=O)[C@H](CCCNC(=N)N)NC(=O)[C@H](CCCNC(=N)N)NC(=O)[C@H](CO)NC(=O)[C@H](CC(=O)O)NC(=O)[C@H](CC(C)C)NC(=O)[C@H](Cc1ccc(O)cc1)NC(=O)[C@H](CCCCN)NC(=O)[C@H](CO)NC(=O)[C@H](Cc1ccc(O)cc1)NC(=O)[C@H](CSCCC(=O)O)NC(=O)[C@H](CO)NC(=O)[C@@H](NC(=O)[C@@H](N)Cc1ccccc1)[C@@H](C)O)C(C)C)C(=O)N[C@@H](CC(N)=O)C(=O)N[C@H](C(N)=O)[C@@H](C)O` [[(CSA-2)^9]Glucagon(aa6-29)-NH2, [C^9(SCH2CH2COOH)]Glucagon(aa6-29)-NH2] (H-FTSC(CH2CH2COOH)YSKYLDSRRAQDFVQWLMNT-NH2; N-terminus assumed) were, in that order, 229 nM, 6.64 ± 0.29 and 146 ± 36.9 nM.
As to `CSCC[C@H](NC(=O)[C@H](CC(C)C)NC(=O)[C@H](Cc1c[nH]c2ccccc12)NC(=O)[C@H](CCC(N)=O)NC(=O)[C@@H](NC(=O)[C@H](Cc1ccccc1)NC(=O)[C@H](CC(=O)O)NC(=O)[C@H](CCC(N)=O)NC(=O)[C@H](C)NC(=O)[C@H](CCCNC(=N)N)NC(=O)[C@H](CCCNC(=N)N)NC(=O)[C@H](CO)NC(=O)[C@H](CC(=O)O)NC(=O)[C@H](CC(C)C)NC(=O)[C@H](Cc1ccc(O)cc1)NC(=O)[C@H](CCCCN)NC(=O)[C@H](CO)NC(=O)[C@H](Cc1ccc(O)cc1)NC(=O)[C@H](CC(=O)O)NC(=O)[C@H](CO)NC(=O)[C@@H](NC(=O)[C@@H](O)Cc1ccccc1)[C@@H](C)O)C(C)C)C(=O)N[C@@H](CC(=O)O)C(=O)N[C@H](C(N)=O)[C@@H](C)O` [[PLA6, D9, D28]Glucagon(aa6-29)-NH2], in the data set “solubility at pH 6-8”, the “Solubility (%, pH 6-8)” value is 100%.
With `CC(C)C[C@H](NC(=O)[C@H](Cc1ccc(O)cc1)NC(=O)[C@H](CCCCN)NC(=O)[C@H](CO)NC(=O)[C@H](Cc1ccc(O)cc1)NC(=O)[C@H](CCS(=O)(=O)O)NC(=O)[C@H](CO)NC(=O)[C@@H](NC(=O)[C@H](Cc1ccccc1)NC(=O)[C@@H](NC(=O)CNC(=O)[C@H](CCC(N)=O)NC(=O)[C@@H](N)CO)[C@@H](C)O)[C@@H](C)O)C(=O)N[C@@H](CC(=O)O)C(=O)N[C@@H](CO)C(=O)N[C@@H](CCCNC(=N)N)C(=O)N[C@@H](CCCNC(=N)N)C(=O)N[C@@H](C)C(=O)N[C@@H](CCC(N)=O)C(=O)N[C@@H](CC(=O)O)C(=O)N[C@@H](Cc1ccccc1)C(=O)N[C@H](C(=O)N[C@@H](CCC(N)=O)C(=O)N[C@@H](Cc1ccccc1)C(=O)N[C@@H](CC(C)C)C(=O)N[C@@H](CC(C)C)C(=O)N[C@@H](CC(N)=O)C(=O)N[C@H](C(N)=O)[C@@H](C)O)C(C)C` [[desIIis^1, hCys^9(SO3—), Phe^25, Leu^27]Glucagon-NH2] (HELM PEPTIDE1{S.Q.G.T.F.T.S.[O=C([C@H](CCS(=O)(=O)O)N[*:1])[*:2]].Y.S.K.Y.L.D.S.R.R.A.Q.D.F.V.Q.F.L.L.N.T.[am]}$$$$V2.0; N-terminus assumed), the IC50 at glucagon receptor [2] (setting [4]) amounted to 13.9 ± 0.37 nM.
In the case of `CSCC[C@H](NC(=O)[C@H](CC(C)C)NC(=O)[C@H](Cc1c[nH]c2ccccc12)NC(=O)[C@H](CCC(N)=O)NC(=O)[C@@H](NC(=O)[C@H](Cc1ccccc1)NC(=O)[C@H](CC(=O)O)NC(=O)[C@H](CCC(N)=O)NC(=O)[C@H](C)NC(=O)[C@H](CCCNC(=N)N)NC(=O)[C@H](CCCNC(=N)N)NC(=O)[C@H](CO)NC(=O)[C@H](CC(=O)O)NC(=O)[C@H](CC(C)C)NC(=O)[C@H](Cc1ccc(O)cc1)NC(=O)[C@H](CCCCN)NC(=O)[C@H](CO)NC(=O)[C@H](Cc1ccc(O)cc1)NC(=O)[C@H](CCS(=O)(=O)O)NC(=O)[C@H](CO)NC(=O)[C@@H](NC(=O)[C@H](Cc1ccccc1)NC(=O)[C@@H](NC(=O)CNC(=O)[C@H](CCC(N)=O)NC(=O)[C@@H](N)CO)[C@@H](C)O)[C@@H](C)O)C(C)C)C(=O)N[C@@H](CC(N)=O)C(=O)N[C@H](C(N)=O)[C@@H](C)O` [[hCys^9(SO3H)]Glucagon(aa2-29)-NH2], the IC50 on glucagon receptor [2] (setting [5]) worked out at 13.2 ± 1 nM.
In turn, `CSCC[C@H](NC(=O)[C@H](CC(C)C)NC(=O)[C@H](Cc1c[nH]c2ccccc12)NC(=O)[C@H](CCC(N)=O)NC(=O)[C@@H](NC(=O)[C@H](Cc1ccccc1)NC(=O)[C@H](CC(=O)O)NC(=O)[C@H](CCC(N)=O)NC(=O)[C@H](C)NC(=O)[C@H](CCCNC(=N)N)NC(=O)[C@H](CCCNC(=N)N)NC(=O)[C@H](CO)NC(=O)[C@H](CC(=O)O)NC(=O)[C@H](CC(C)C)NC(=O)[C@H](Cc1ccc(O)cc1)NC(=O)[C@H](CCCCN)NC(=O)[C@H](CO)NC(=O)[C@H](Cc1ccc(O)cc1)NC(=O)[C@H](CCS(=O)(=O)O)NC(=O)[C@H](CO)NC(=O)[C@@H](NC(=O)[C@@H](N)Cc1ccccc1)[C@@H](C)O)C(C)C)C(=O)N[C@@H](CC(N)=O)C(=O)N[C@H](C(N)=O)[C@@H](C)O` [[hCys^9(SO3H)]Glucagon(aa6-29)-NH2] (HELM PEPTIDE1{F.T.S.[O=C([C@H](CCS(=O)(=O)O)N[*:1])[*:2]].Y.S.K.Y.L.D.S.R.R.A.Q.D.F.V.Q.W.L.M.N.T.[am]}$$$$V2.0) had a Kb at glucagon receptor [1] of 69.2 nM. Besides, the “cAMP pA2” value at glucagon receptor [1] (Table I) is 7.16 ± 0.51. Besides, the IC50 against glucagon receptor [1] (cAMP IC50(nM), Table H) was found to be 133 nM; on glucagon receptor [2] (setting [5]) it was 59.1 ± 18.1 nM.
As for “FTSEYSKYLDSRRAQDFVQWLMNT-NH2 [[Glu^9]Glucagon(aa6-29)-NH2]”, at glucagon receptor [1], the Kb is 69.2 nM, the “cAMP (I/A)50” value was 486 and the “cAMP pA2” value was 7.16 ± 0.27. Also, the IC50 on glucagon receptor [2] (setting [3]) was found to be 36.4 ± 5.23 nM.
As to “H-LTFTSEYSKYLDSRRAQDFVQWLMNT-NH2 [[Leu^4, Glu^9]Glucagon(aa4-29)-NH2]”, the IC50 on glucagon receptor [2] (setting [3]) turned out to be 36.4 ± 8.69 nM.
“SQGTTSDYSKYLDSRRAQDFVQWLMNT-NH2 [[desHis^1, desPhe^6]Glucagon-NH2]”: the IC50 on glucagon receptor [2] (setting [4]) was 130 ± 44.9 nM.
As for “TSEYSKYLDSRRAQDFVQWLMNT-NH2 [[Glu^9]Glucagon(aa7-29)-NH2]”, the IC50 on glucagon receptor [2] (setting [3]) was greater than 10000 nM.
As to “[C5(1.2 kDaPEG), E9]Glucagon(aa5-29)-NII2”, the figures for the IC50 at glucagon receptor [1] (setting [6]) and on glucagon receptor [2] (setting [7]) were 2280 nM and 1080 ± 268 nM, respectively.
“[C8(20 kDaPEG), E9]Glucagon(aa6-29)-NH2 (FTC(PEG 20 kDa)EYSKYLDSRRAQDFVQWLMNT-NH2)”: in the data set with glucagon receptor [1] (setting [8]), the “IC50(nM) (cΛMP, inhibit 0.2 mM Glucagon)” value is “no antagonism”. Moreover, in the data set with glucagon receptor [2] (setting [7]), the IC50 was greater than 1000 nM.
With “[E9, C11(20 kDaPEG)]Glucagon(aa6-29)-NH2 (FTSEYC(PEG 20 kDa)KYLDSRRAQDFVQWLMNT-NH2)”, the “IC50(nM) (cΛMP, inhibit 0.2 mM Glucagon)” value with glucagon receptor [1] (setting [8]) is on record as “no antagonism”. Further, in the data set with glucagon receptor [2] (setting [7]), the IC50 is greater than 1000 nM.
As to “[E9, C24(20 kDaPEG)]Glucagon(aa6-29)-NH2 (FTSEYSKYLDSRRAQDFVC(PEG 20 kDa)WLMNT-NH2; not fully specified (residue 1))”, in the data set with glucagon receptor [1] (setting [8]), the “IC50(nM) (cΛMP, inhibit 0.2 mM Glucagon)” value was “no antagonism”. Further, in the data set with glucagon receptor [2] (setting [7]), the IC50 is greater than 1000 nM.
With “[K5(CH2CH2S-20 kDaPEG), E9]Glucagon(aa5-29)-NH2 (K([CH2CH2S-PEG 20 kDa])FTSEYSKYLDSRRAQDFVQWLMNT-NH2)”, the “IC50(nM) (cΛMP, inhibit 0.2 mM Glucagon)” value in the data set with glucagon receptor [1] (setting [8]) is recorded as “no antagonism”. Also, the IC50 in the data set with glucagon receptor [2] (setting [7]) was greater than 10000 nM.
For “[Phe6, E9, C24(20 kDaPEG)]Glucagon aa6-29)-NH2 (FTSEYSKYLDSRRAQDFVC(PEG20kDa)WLMNT-NH2)”, in that order: “no antagonism” and greater than 10000 nM.
For the molecule “[d-Cys5(20 kDaPEG, E9]Glucagon(aa5-29)-NH2 ([dC](PEG 20 kDa)FTSEYSKYLDSRRAQDFVQWLMNT-NH2)”, the IC50 was 14800 nM with glucagon receptor [1] (setting [6]) and greater than 10000 nM in the data set with glucagon receptor [2] (setting [7]).

These data come from patent US20140107021A1 (priority 2010, published 2014).
